Test results from patent US20240254119A1 (THIRD HARMONIC BIO, INC., priority 2022, published 2024).
pIC50: −log10 of the molar value.

system: not listed separately; experiment: Kinetic solubility assay; assay type: physicochemical; conditions: kinetic solubility, 50 mM PB (pH 7.4), shaken 24 hours at RT
Protocol: 10 μL of 10 mM in DMSO of test article and control compounds was added into lower chambers of whatman miniuniprep vials, respectively. 490 μL of 50 mM PB (pH 7.4) was then added into lower chambers of the whatman miniuniprep vials, respectively. […] Miniuniprep vials were shaken for 24 hours at RT at the speed of 800 rpm, centrifuged 20 minutes (eg. 4000 rpm) and the filtrates were analyzed by UPLC-UV/HPLC-UV system to calculate the concentration with standard curve.
Filter Membrane: Miniuniprep (PTFE Filter Media with Polypropylene Housing) Cat. No. UN203NPUORG, GE Halthcare Whatman.

SMILES	Solubility (μM)
Cc1ccc(-c2noc([C@H]3C[C@@H]3F)n2)cc1NC(=O)c1cnn2cc(OC(F)(F)F)ccc12 [I-19]	**** (a solubility less than or equal to 2 μM)
Cc1ccc(-c2noc([C@H]3C[C@@H]3F)n2)cc1NC(=O)c1cnc2cc(CNS(=O)(=O)C3CC3)ccn12 [I-10]	**** (a solubility less than or equal to 2 μM)
Cc1ccc(-c2noc(C3COC3)n2)cc1NC(=O)c1cnc2cc(C(F)F)ccn12 [I-52]	**** (a solubility less than or equal to 2 μM)
COc1ccc2ncc(C(=O)Nc3cc(-c4noc(CC(O)C(F)F)n4)ccc3C)n2c1 (single isomer, unassigned) [I-66]	**** (a solubility less than or equal to 2 μM)
Cc1ccc(-c2noc([C@H]3C[C@@H]3F)n2)cc1NC(=O)c1cnc2ccc(CNC(=O)CO)cn12 [I-8]	**** (a solubility less than or equal to 2 μM)
Cc1ccc(-c2noc([C@H]3C[C@@H]3F)n2)cc1NC(=O)c1cnc2ccc(CC#N)cn12 [I-15]	**** (a solubility less than or equal to 2 μM)
COc1ccc2c(C(=O)Nc3cc(-c4noc([C@H]5C[C@@H]5F)n4)ccc3C)cnn2c1 [I-21]	**** (a solubility less than or equal to 2 μM)
Cc1ccc(-c2noc(C3COC3)n2)cc1NC(=O)c1cnc2cc(C(C)(F)F)ccn12 [I-43]	**** (a solubility less than or equal to 2 μM)
O=C(Nc1cc(-c2noc(C3CC3F)n2)ccc1Cl)c1cnc2cc(COCCO)ccn12 (centres unmarked) [I-56]	**** (a solubility less than or equal to 2 μM)
Cc1ccc(-c2noc(C3CC3F)n2)cc1NC(=O)c1cnc2cc(COC(C)(C)CO)ccn12 (centres unmarked) [I-64]	** (a solubility greater than 10 μM and less than or equal to 50 μM)
Cc1ccc(-c2noc([C@H]3C[C@@H]3F)n2)cc1NC(=O)c1cnc2cc(CNC(=O)CO)ccn12 [I-7]	**** (a solubility less than or equal to 2 μM)
Cc1ccc(-c2noc([C@H]3C[C@@H]3F)n2)cc1NC(=O)c1cnc2cc(CF)ccn12 [I-49]	**** (a solubility less than or equal to 2 μM)
Cc1ccc(-c2noc(C3COC3)n2)cc1NC(=O)c1cnc2cc(OC(F)(F)F)ccn12 [I-24]	**** (a solubility less than or equal to 2 μM)
Cc1ccc(-c2noc([C@H]3C[C@@H]3F)n2)cc1NC(=O)c1cnc2ccc(CNS(=O)(=O)C3CC3)cn12 [I-5]	**** (a solubility less than or equal to 2 μM)
Cc1ccc(-c2noc([C@H]3C[C@@H]3F)n2)cc1NC(=O)c1cnc2cc3c(cn12)COC3 [I-28]	**** (a solubility less than or equal to 2 μM)
Cc1ccc(-c2noc(C3COC3)n2)cc1NC(=O)c1cnc2cc(CC(F)(F)F)ccn12 [I-36]	**** (a solubility less than or equal to 2 μM)
O=C(Nc1cc(-c2noc(CC(O)C(F)F)n2)ccc1Cl)c1cnc2ccccn12 (single isomer, unassigned) [I-61]	**** (a solubility less than or equal to 2 μM)
Cc1ccc(-c2noc([C@H]3C[C@@H]3F)n2)cc1NC(=O)c1cnc2cc(N3CCCC3=O)ccn12 [I-14]	**** (a solubility less than or equal to 2 μM)
Cc1ccc(-c2noc(C3COC3)n2)cc1NC(=O)c1cnc2cc(COCCO)ccn12 [I-50]	*** (a solubility greater than 2 μM and less than or equal to 10 μM)
CC(=O)NCc1ccc2ncc(C(=O)Nc3cc(-c4noc([C@H]5C[C@@H]5F)n4)ccc3C)n2c1 [I-9]	**** (a solubility less than or equal to 2 μM)
Cc1ccc(-c2noc([C@H]3C[C@@H]3F)n2)cc1NC(=O)c1cnc2ccc(CS(C)(=O)=O)cn12 [I-12]	**** (a solubility less than or equal to 2 μM)
Cc1ccc(-c2noc(C3CC3F)n2)cc1NC(=O)c1cnc2cc(CNC(=O)C3CCCO3)ccn12 (mixture of isomers) [I-33]	*** (a solubility greater than 2 μM and less than or equal to 10 μM)
COc1ccn2c(C(=O)Nc3cccc(-c4noc([C@H]5C[C@@H]5F)n4)c3F)cnc2c1 [I-53]	**** (a solubility less than or equal to 2 μM)
Cc1ccc(-c2noc(C3CC3F)n2)cc1NC(=O)c1cnn2cccc(C(F)F)c12 (centres unmarked) [I-60]	**** (a solubility less than or equal to 2 μM)
O=C(Nc1cc(-c2noc(C3COC3)n2)ccc1Cl)c1cnc2cc(C(F)F)ccn12 [I-38]	**** (a solubility less than or equal to 2 μM)
COC(=O)NCc1ccn2c(C(=O)Nc3cc(-c4noc([C@H]5C[C@@H]5F)n4)ccc3C)cnc2c1 [I-30]	**** (a solubility less than or equal to 2 μM)

SMILES	Solubility (μM)
O=C(Nc1cccc(-c2noc(C3CC3F)n2)c1F)c1cnc2cc(COCCO)ccn12 (centres unmarked) [I-57]	**** (a solubility less than or equal to 2 μM)
Cc1ccc(-c2noc(C3COC3)n2)cc1NC(=O)c1cnn2cc(C(F)F)ccc12 [I-20]	**** (a solubility less than or equal to 2 μM)
O=C(Nc1cc(-c2noc(C3CC3(F)F)n2)ccc1Cl)c1cnc2ccccn12 (centres unmarked) [I-74]	**** (a solubility less than or equal to 2 μM)
COc1cc2ncc(C(=O)Nc3cc(-c4noc([C@H]5C[C@@H]5F)n4)ccc3C)n2cc1C(F)F [I-29]	**** (a solubility less than or equal to 2 μM)
Cc1ccc(-c2noc([C@H]3C[C@@H]3F)n2)cc1NC(=O)c1cnc2cc(C(C)(F)F)ccn12 [I-44]	**** (a solubility less than or equal to 2 μM)
Cc1ccc(-c2noc([C@H]3CC4(CC4)CN3)n2)cc1NC(=O)c1cnc2ccccn12 [I-231]	** (a solubility greater than 10 μM and less than or equal to 50 μM)
COc1cc2ncc(C(=O)Nc3cc(-c4noc([C@H]5C[C@@H]5F)n4)ccc3C)n2cc1F [I-27]	**** (a solubility less than or equal to 2 μM)
Cc1ccc(-c2noc([C@H]3C[C@@H]3F)n2)cc1NC(=O)c1cnc2cc(C(=O)N3CCCC3)ccn12 [I-3]	*** (a solubility greater than 2 μM and less than or equal to 10 μM)
Cc1ccc(-c2noc([C@H]3C[C@@H]3F)n2)cc1NC(=O)c1cnc2cc(CNS(C)(=O)=O)ccn12 [I-17]	**** (a solubility less than or equal to 2 μM)
O=C(Nc1cc(-c2noc(CC(O)C(F)F)n2)ccc1Cl)c1cnc2ccccn12 (single isomer, unassigned) [I-62]	**** (a solubility less than or equal to 2 μM)
Cc1ccc(-c2noc([C@H]3C[C@@H]3F)n2)cc1NC(=O)c1cnc2cc(CNC(=O)C(C)(C)O)ccn12 [I-31]	**** (a solubility less than or equal to 2 μM)
COc1cc2ncc(C(=O)Nc3cc(-c4noc([C@H]5C[C@@H]5F)n4)ccc3C)n2cc1C(F)(F)F [I-41]	**** (a solubility less than or equal to 2 μM)
Cc1ccc(-c2noc(C3COC3)n2)cc1NC(=O)c1cnc2cc(CF)ccn12 [I-48]	**** (a solubility less than or equal to 2 μM)
Cc1ccc(-c2noc(CC(O)C(F)F)n2)cc1NC(=O)c1cnc2cc(C(F)F)ccn12 (single isomer, unassigned) [I-70]	**** (a solubility less than or equal to 2 μM)
COc1ccc2ncc(C(=O)Nc3cc(-c4noc(CC(O)C(F)F)n4)ccc3C)n2c1 (single isomer, unassigned) [I-65]	**** (a solubility less than or equal to 2 μM)
Cc1ccc(-c2noc(C3CC3F)n2)cc1NC(=O)c1cnc2cc(COC(C)CO)ccn12 (centres unmarked) [I-59]	* (a solubility greater than 50 μM)
Cc1cn2c(C(=O)Nc3cc(-c4noc([C@H]5C[C@@H]5F)n4)ccc3C)cnc2cc1C#N [I-26]	**** (a solubility less than or equal to 2 μM)
Cc1ccc(-c2noc(CC(O)C(F)(F)F)n2)cc1NC(=O)c1cnc2ccccn12 (single isomer, unassigned) [I-68]	**** (a solubility less than or equal to 2 μM)
Cc1ccc(-c2noc(CC(O)C(F)(F)F)n2)cc1NC(=O)c1cnc2ccccn12 (single isomer, unassigned) [I-67]	**** (a solubility less than or equal to 2 μM)
COc1cc2ncc(C(=O)Nc3cc(-c4noc([C@H]5C[C@@H]5F)n4)ccc3C)n2cc1C [I-42]	**** (a solubility less than or equal to 2 μM)
CC(=O)NCc1ccn2c(C(=O)Nc3cc(-c4noc([C@H]5C[C@@H]5F)n4)ccc3C)cnc2c1 [I-32]	**** (a solubility less than or equal to 2 μM)
Cc1ccc(-c2noc(CC(O)C(F)F)n2)cc1NC(=O)c1cnc2cc(OC(F)(F)F)ccn12 (single isomer, unassigned) [I-13]	**** (a solubility less than or equal to 2 μM)
Cc1ccc(-c2noc([C@H]3C[C@@H]3F)n2)cc1NC(=O)c1cnc2ccc(N3CCCC3=O)cn12 [I-4]	**** (a solubility less than or equal to 2 μM)
COc1ccn2c(C(=O)Nc3cc(-c4noc(C5COC5)n4)ccc3Cl)cnc2c1 [I-47]	**** (a solubility less than or equal to 2 μM)
COc1ccn2c(C(=O)Nc3cc(-c4noc([C@H]5C[C@@H]5F)n4)ccc3C)cnc2c1F [I-34]	**** (a solubility less than or equal to 2 μM)
Cc1ccc(-c2noc([C@H]3C[C@@H]3F)n2)cc1NC(=O)c1cnc2cc(CC#N)ccn12 [I-16]	**** (a solubility less than or equal to 2 μM)

target: T1, wtKIT (Homo sapiens, UniProt P10721); experiment: HTRF biochemical assay, wtKIT (phosphorylation of a peptide substrate); conditions: Table 4
T1 construct: 1888289AM in the reaction mixtures
T1 sequence (P10721 26-976): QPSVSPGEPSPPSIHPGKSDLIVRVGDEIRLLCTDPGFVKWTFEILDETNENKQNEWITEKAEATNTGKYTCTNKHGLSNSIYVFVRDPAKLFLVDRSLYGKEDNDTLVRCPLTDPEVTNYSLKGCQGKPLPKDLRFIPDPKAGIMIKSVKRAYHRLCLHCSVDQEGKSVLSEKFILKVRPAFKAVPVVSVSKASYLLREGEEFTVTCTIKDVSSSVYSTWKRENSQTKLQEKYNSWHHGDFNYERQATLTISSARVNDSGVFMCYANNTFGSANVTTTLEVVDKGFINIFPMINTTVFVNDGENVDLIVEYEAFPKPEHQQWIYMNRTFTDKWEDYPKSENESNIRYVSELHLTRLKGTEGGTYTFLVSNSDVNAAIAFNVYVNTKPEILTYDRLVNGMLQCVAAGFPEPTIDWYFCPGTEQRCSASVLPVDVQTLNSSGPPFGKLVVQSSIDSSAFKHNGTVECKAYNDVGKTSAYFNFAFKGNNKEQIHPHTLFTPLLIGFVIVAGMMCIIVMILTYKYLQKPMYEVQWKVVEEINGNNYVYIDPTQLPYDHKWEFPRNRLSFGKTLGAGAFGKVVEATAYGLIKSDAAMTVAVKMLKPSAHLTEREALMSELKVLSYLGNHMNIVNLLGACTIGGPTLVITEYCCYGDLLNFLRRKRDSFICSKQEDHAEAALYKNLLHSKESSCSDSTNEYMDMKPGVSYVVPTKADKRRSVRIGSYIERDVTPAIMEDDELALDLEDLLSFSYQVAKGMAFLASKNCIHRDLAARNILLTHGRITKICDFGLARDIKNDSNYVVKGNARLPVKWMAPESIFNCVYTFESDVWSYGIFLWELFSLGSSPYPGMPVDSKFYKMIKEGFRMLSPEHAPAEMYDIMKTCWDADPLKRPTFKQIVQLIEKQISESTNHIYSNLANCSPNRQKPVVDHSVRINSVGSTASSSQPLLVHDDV
Procedure, shortened: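 wtKIT (5.0 nM) phosphorylating 1 µM FAM-labelled peptide with 400 µM ATP and 10 mM MnCl2 in 100 mM HEPES pH 7.5, 1% DMSO, 3 h at 25 °C. EDTA quench; phosphopeptide detected with anti-phosphotyrosine antibody by HTRF. Enzyme titrated for 10-20% substrate conversion.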

SMILES	pIC50
Cc1ccc(-c2noc(C[C@H](O)C(F)F)n2)cc1NC(=O)c1cnc2cc(O)ccn12 [Compound I-574, (S)—N-(5-(5-(3,3-difluoro-2-hydroxypropyl)-1,2,4-oxadiazol-3-yl)-2-methylphenyl)-7-hydroxyimidazo[1,2-a]pyridine-3-carboxamide]	≥ 7.30
